Test results taken from patent US20050048603A1 (priority 2001, published 2005).

B1: mycoAC holoenzyme expressed in E. coli (N-terminal His6-tag) (protein)
chain: MRGSHHHHHHGSMAARKCGAPPIAADGSTRRPDCVTAVRTQARAPTQHYAESVARRQRVLTITAWLAVVVTGSFALMQLATGAGGWYIALINVFTAVTFAIVPLLHRFGGLVAPLTFIGTAYVAIFAIGWDVGTDAGAQFFFLVAAALVVLLVGIEHTALAVGLAAVAAGLVIALEFLVPPDTGLQPPWAMSVSFVLTTVSACGVAVATVWFALRDTARAEAVMEAEHDRSEALLANMLPASIAERLKEPERNIIADKYDEASVLFADIVGFTERASSTAPADLVRFLDRLYSAFDELVDQHGLEKIKVSGDSYMVVSGVPRPRPDHTQALADFALDMTNVAAQLKDPRGNPVPLRVGLATGPVVAGVVGSRRFFYDVWGDAVNVASRMESTDSVGQIQVPDEVYERLKDDFVLRERGHINVKGKGVMRTWYLIGRKVAADPGEVRGAEPRTAGV

Key:
[1] = target: mycoAC (adenylyl cyclase Rv1625c) (Mycobacterium tuberculosis, UniProt P9WQ35); type: biochemical

Molecule	acceptance as a substrate [1]	AC activity of the bacterial membrane preparation (P9WQ35)
Mn-GTP	not accepted as a substrate	
B1		19 nmol cAMP/mg·min^-1
